Data reported in US10967047B2, “Mitochondrial antiviral-signaling (MAVS) polypeptides and detection and use thereof” (University of Vermont and State Agricultural College, priority 2016, dated 2021).

Assays:
[1] = test system: Drp1; assay: Phosphorylated Drp1 (Drp1 616p) at purified mitochondria, densitometry normalized to Cox IV; format: cell-based; settings: 5′-ppp-RNA 1 μg/ml or GOx (FIG. 14A-B)
Procedure: To activate MAVS commercially available 5′-ppp-RNA was used at a concentration of 1 μg/ml, which activates RIG-I helicase. As an alternative GOx was used as previously described [Szeto, H. H., Br J Pharmacol, 2014. 171(8): p. 2029-50]. Mitochondria were purified by anti-Tom22 magnetic beads as previously described [Perl, A., et al., Int Rev Immunol, 2004. 23(3-4): p. 293-313]. Changes in the level of Drp1^616p at mitochondria were determined by densitometry, which was normalized to the level of Cox IV (FIG. 14A-B).

[2] = test system: MEFs; assay: ROS generation by FACS using DHC in MEFs; format: cell-based, mouse
Procedure: (§1) ROS generation was measured using oxidized, green-fluorescent dihydrocalcein acetoxymethylester (DHC-AM) (Life Technologies) and flow cytometry. Single-cell suspensions of MEFs were prepared and ROS was assessed with 5 μM DHC-AM staining in culture medium for 30 minutes (A. Rohnstock et al., (2007) Toxicol in Vitro 21, 1552-1562). 25 nM of cationic cell permeant dye tetramethylrhodamine ethylester (TMRE; Life Technologies) (R. C. Scaduto, Jr. et al., (1999), Biophysical journal 76, 469-477) were used to measure ΔΨm. Additionally, MitoSox Red and MitoTracker Deep Red (Life Technologies) were used to measure mitochondrial ROS and mitochondrial mass, respectively. Flow cytometry was carried out on an LSRII (BD Biosciences), and FlowJo software (Tree Star) was used for analysis.

[3] = test system: MEFs; assay: Mitochondrial transmembrane potential (ΔΨm) by FACS using TMRE in MEFs; format: cell-based, mouse
Procedure: as §1

[4] = test system: MEFs; assay: Oxygen consumption rate (OCR), Seahorse XF-24 extracellular flux analyzer, MEFs; format: cell-based, mouse; settings: MAVS-WT MEFs (FIG. 1I, J)
Procedure: Real-time analysis of OCR and ECAR was performed with an XF-24 Extracellular Flux Analyzer (Seahorse Bioscience). Metabolic profiles were measured under basal conditions in non-buffered DMEM (Sigma) containing 25 mM glucose, 2 mM L glutamine, and 1 mM sodium pyruvate, in response to 1 μM oligomycin, 0.5 μM FCCP, and 1 μM rotenone/1 μM antimycin A (M. B. de Moura et al., (2014) Methods in molecular biology 1105, 589-602). Total ATP was measured with the ATP Lite Kit (Perkin Elmer), and the ATP/ADP ratio was determined using the bioluminescence ADP/ATP Ratio Assay Kit from Sigma.

[5] = test system: MAVS; assay: MAVS expression and oligomerization in the mitochondrial fraction of BMDCs treated with free dye; format: cell-based, mouse; settings: increasing concentrations of free Alx488 dye (FIG. 7G)
[6] = test system: MEFs; assay: Cell death by FACS using live-dead stain; format: cell-based, mouse; settings: MitoPQ at the doses used (1 to 10 nM) (FIG. 2I)
[7] = test system: MEFs; assay: IFN-I and IL-6 cytokine secretion by ELISA in MEF culture supernatants; format: cell-based, mouse; settings: MAVS-WT MEFs
Procedure: ELISA was used to measure cytokine concentration in supernatant from cultured MEFs and BMDCs, and in sera of SLE patients and healthy control subjects. For assays, samples were centrifuged and IFN-β and IL-6 levels were measured in triplicate using murine or human ELISA kits according to the manufacturer's instructions. (PBL Biosciences). The fold change in IFN-I or IL-6 cells was calculated by directly comparing mock versus virus or chemical inducer of ROS.

[8] = test system: MAVS; assay: MAVS oligomerization in MEFs (semi-denaturing gel electrophoresis, immunoblot, densitometry); format: cell-based, mouse
Procedure: 5′ triphosphate double-stranded RNA (5′-ppp-dsRNA), a synthetic ligand for RIG-I, was purchased from InVivoGen and used at a concentration of 1 μg/mL. Mitochondria-targeted antioxidant MitoQ and the mitochondria-targeted superoxide generator MitoPQ, were gifts of M. Murphy (G. F. Kelso et al., (2001) The Journal of biological chemistry 276, 4588-4596). The control reagent TPP was purchased from Sigma. Reagents were added to cells at concentrations as indicated. GOx was purchased from Sigma and added to cultured cells at a final concentration of 0.1 U/mL. Iodoacetamide was from Thermo Fisher, and used at a final concentration of 100 μM.
Cultured MEFs or human PBMCs were lysed in a sample buffer containing 2% SDS and insoluble cell fragments were removed by centrifugation. Plasma samples derived from SLE patients were collected and stored at −20° C. until gel electrophoresis. BCA protein assay (Thermo Scientific) was used to determine protein concentrations in all samples were resolved with SDS-PAGE under denaturing conditions. Gels were transferred to PVDF membranes using a Trans-Blot Turbo Transfer System (BioRad).
(§2) SDD-AGE was performed according to a published protocol with minor modifications (Alberti et al., (2009) Cell 137, 146-158). In brief, mitochondria were resuspended in sample buffer (0.5×TBE, 10% glycerol, 2% SDS, and 0.0025% bromophenol blue) and loaded onto a vertical 1.5% agarose gel. After electrophoresis in the running buffer (1×TBE and 0.1% SDS) for 35 min with a constant voltage of 75 V at 4° C., proteins were transferred to PVDF membranes using a Trans-Blot Turbo Transfer System (BioRad) for immunoblotting.
PVDF membranes were blocked in 5% solution of nonfat powdered milk in Tris-buffered saline. Antibodies used were specific for MAVS and Actin (Santa Cruz); RIPK1 and TRAF2 (BD Biosciences); TANK, TRADD, RIG-I, and GAPDH (Cell Signaling); MDAS and COX4 (Abcam), Alexa 488 (Life Technologies), and IRF3 (Thermo Fisher), respectively. Immunoreactive proteins were visualized using HRP-labeled conjugates (Jackson Immuno Research) and developed using Clarity Western ECL substrate (Biorad). Chemiluminescence was detected and recorded using a Biorad Chemidoc instrument. Densitometric measurements were performed in Image Lab image acquisition and analysis software (Biorad).

[9] = Total thiol concentration of PBMC and plasma homogenates; set-up: species or system human
[10] = test system: MAVS; assay: MAVS oligomerization in human PBMC and plasma (semi-denaturing agarose gel electrophoresis); format: cell-based
Procedure: MAVS-deficient and matching WT MEFs, gift of Z. J. Chen (Z. J. Chen et al. (2005) Cell 122, 669-682), were maintained in Dulbecco's modified Eagle's medium (DMEM) (Hyclone), supplemented with 10% heat-inactivated fetal calf serum (FCS) (Hyclone), 100 mM L-glutamine (Cellgro Mediatech), and 10,000 units/mL penicillin/10 mg/mL streptomycin sulfate (Life Technologies). C57BL6 or B6; 129-Mavstm1Zjc/J mice (The Jackson Laboratory, Bar Harbor, Me.) were maintained at the University of Vermont under a protocol approved by the Institutional Animal Care and Use Committee. Murine BMDCs were prepared as described by Inaba et al. (K. Inaba et al., (1992) Journal of Experimental Medicine 176, 1693-1702). In brief, cells derived from femur bone marrow were cultured at a density of 5×10^5/mL in 10-cm plates in RPMI 1640 (HyClone), supplemented with 5% heat-inactivated FCS, 100 mmol L-glutamine, 100 mmol sodium pyruvate, 10,000 units/mL penicillin/10 mg/mL streptomycin sulfate, 5×10^−5 mol 2-mercaptoethanol (Sigma, St. Louis, Mo.), and 10 μg/mL GM-CSF (Life Technologies). Human subjects were enrolled under a protocol approved by the University of Vermont Institutional Review Board. Samples from 17 SLE patients fulfilling the American College of Rheumatology diagnostic criteria were studied (E. M. Tan et al., (1982) Arthritis and Rheumatism 25, 1271-1277). 16 out of 17 patients were female, and the age of study participants was 47±3. The disease activity was assessed by the SLE disease activity index (SLEDAI) scores, ranging from 0 to 10 (C. Bombardier et al., (1992) Arthritis and Rheumatism 35, 630-640). Upon informed consent, primary human PBMCs were obtained from heparinized whole-blood samples from SLE patients. Control PBMCs were generated from age-, sex-, and ethnicity-matched healthy subjects. PBMCs were isolated using standard Ficoll gradient centrifugation as previously described (R. Mallone et al., (2011) Clin. and Exp. Immunol. 163, 33-49). Cells were either used immediately to prepare lysates for immunoblotting or cultured at a density of 5×10^5/mL in a 12-well culture plate with RPMI 1640 (HyClone), supplemented with 5% heat-inactivated FCS, 100 mmol L-glutamine, 100 mmol sodium pyruvate, and 10,000 units/mL penicillin/10 mg/mL streptomycin sulfate. Enriched monocytes from PBMCs were used to prepare hDCs using negative magnetic bead selection (Miltenyi), and were subsequently cultivated for 6 d in 10 μg/mL GM-CSF and 500 U/mL IL-4. All cells were maintained in a humidified chamber at 37° C. and 5% CO2.
as §2
PVDF membranes were blocked in 5% solution of nonfat powdered milk in Tris-buffered saline. Antibodies used were specific for MAVS and Actin (Santa Cruz); RIPK1 and TRAF2 (BD Biosciences); TANK, TRADD, RIG-I, and GAPDH (Cell Signaling); MDAS and COX4 (Abcam), Alexa 488 (Life Technologies), and IRF3 (Thermo Fisher), respectively. […] Chemiluminescence was detected and recorded using a Biorad Chemidoc instrument. […]

[11] = target: T1, MAVS oligomers (Homo sapiens, UniProt Q7Z434); assay: Membrane lipid-strip blot: interaction of lipids with MAVS oligomers isolated from SLE patients; format: binding; settings: lipid strips exposed to 1 μg/ml MAVS oligomer from SLE patients (FIG. 15B)
T1 construct: The strips were exposed to 1 μg/ml of MAVS oligomer isolated from SLE patients; from tissue; host or cells: SLE patient material, immunoprecipitated with anti-MAVS antibody on protein G magnetic beads
Procedure: To assess MAVS oligomer interaction a plate coated with anti-phospholipid antibody was prepared and was later was saturated with purified CL. The same plate was exposed to purified and Alx488 labeled MAVS oligomers from mock or GOx treated healthy controls, or from SLE patients as previously published [Szeto, H. H., Br J Pharmacol, 2014. 171(8): p. 2029-50]. Following washing, fluorescence of captured MAVS oligomers was measured. As a control we used recombinant, purified and Alx488 labeled MAVS monomers. Results are shown in FIG. 15A with data shown as mean±SEM, with results representative of two experiments. […] Tests were performed on membrane lipid-strips (Echelon Biosciences). The strips were exposed to 1 μg/ml of MAVS oligomer isolated from SLE patients. The strips were washed with mild detergent and treated with phospholipase A2 (PLA2).

T1 sequence (Q7Z434 whole entry): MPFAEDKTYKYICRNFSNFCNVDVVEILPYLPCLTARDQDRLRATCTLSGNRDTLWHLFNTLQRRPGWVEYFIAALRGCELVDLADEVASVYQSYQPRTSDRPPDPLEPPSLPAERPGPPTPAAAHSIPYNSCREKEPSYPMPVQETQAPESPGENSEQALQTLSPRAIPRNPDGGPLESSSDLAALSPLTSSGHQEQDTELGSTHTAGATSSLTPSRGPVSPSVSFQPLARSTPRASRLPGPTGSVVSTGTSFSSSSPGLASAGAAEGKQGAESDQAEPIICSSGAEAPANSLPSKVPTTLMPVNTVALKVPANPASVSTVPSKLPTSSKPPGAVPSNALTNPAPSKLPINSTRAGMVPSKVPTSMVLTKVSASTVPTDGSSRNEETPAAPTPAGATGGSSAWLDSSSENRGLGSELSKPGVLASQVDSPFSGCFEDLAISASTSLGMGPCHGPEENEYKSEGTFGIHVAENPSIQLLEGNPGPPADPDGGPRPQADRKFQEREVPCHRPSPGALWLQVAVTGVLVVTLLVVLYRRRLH

Compound: 5′ triphosphate double-stranded RNA [5′-ppp-RNA]
- level of phosphorylated Drp1 at mitochondria after MAVS activation [1]: lower levels of phosphorylated Drp1 at mitochondria
- ROS after transfection ([2]; MAVS-WT MEFs, initial 12 h, 1 μg 5′-ppp-RNA (FIG. 1A)): increased
- ΔΨm induced by the substance ([3]; MAVS-WT MEFs, not observed in MAVS-KO (FIG. 1B, 2D)): increased
- basal OCR versus mock-treated cells [4]: significantly lower basal OCR

Compound: N=c1ccc2c(-c3ccc(C(=O)O)cc3C(=O)O)c3ccc(N)c(S(=O)(=O)O)c3oc-2c1S(=O)(=O)O [Alx488, Alexa Fluor 488]
- MAVS expression or oligomerization with free fluorophore [5]: did not lead to increased MAVS expression or oligomerization

Compound: C[n+]1ccc(-c2cc[n+](CCCCCCCCCC[P+](c3ccccc3)(c3ccccc3)c3ccccc3)cc2)cc1.[I-].[I-].[I-] [MitoPQ, MitoParaquat]
- superoxide within mitochondria / ROS ([2]; MEFs, MitoPQ 1 to 10 nM (FIG. 2G)): increased amount of superoxide within mitochondria
- cell death [6]: without causing significant cell death
- IFN-I secretion induced by the substance ([7]; not observed in MAVS-KO (FIG. 2E, 2J)): significant increase
- IL-6 secretion induced by the substance ([7]; not observed in MAVS-KO (FIG. 2F, 2K)): significant increase
- induction of MAVS oligomerization without viral infection ([8]; MEFs, substance alone (MitoPQ 1 to 10 nM, FIG. 2H; GOx, FIG. 2A)): MAVS oligomerization

Compound: CCCCCCCCCC[P+](c1ccccc1)(c1ccccc1)c1ccccc1 [dTPP]
- MAVS oligomerization after pretreatment ([8]; MEFs pretreated (100 μM) before GOx or SINV (FIG. 3A)): did not demonstrate reversal of MAVS oligomerization

Compound: NC(=O)CI [iodoacetamide]
- reduction of total thiol concentration, PBMCs ([9]; PBMC homogenates (FIG. 9)): 80%
- reduction of total thiol concentration, plasma ([9]; plasma homogenates (FIG. 9)): 94%
- MAVS oligomers with thiol blocking during homogenization ([10]; cells homogenized in buffer with 100 μM iodoacetamide after GOx or SINV (FIG. 9)): did not result in a decrease in MAVS oligomers
- detection of MAVS oligomers in SLE cells or plasma with thiol blocking ([10]; iodoacetamide added to SLE PBMC and plasma samples (FIG. 9)): did not decrease the detection of MAVS oligomers

Compound: OCCS [β-Me, β-mercaptoethanol]
- reversal of GOx-induced MAVS oligomerization ([8]; cell media supplemented with β-Me (FIG. 2A)): reversible
- reversal of SINV-induced MAVS oligomerization ([8]; cell media supplemented with β-Me, SINV infection (FIG. 2A)): only a portion of the MAVS oligomers were reducible
- GOx-induced MAVS oligomerization in PBMCs after pretreatment ([10]; healthy-donor PBMCs pretreated with MitoQ or grown in presence of β-Me, then GOx (FIG. 4A)): MAVS oligomerization did not occur
- mitochondrial hyperpolarization in GOx-treated cells ([3]; media supplemented with β-Me, GOx (FIG. 2D)): prevented mitochondrial hyperpolarization

Compound: cardiolipin [CL]
- interaction with MAVS oligomers [11]: significant interaction
